Data: patent US10807959B2, “WDR5-MLL1 inhibitors and modulators” (Vanderbilt University, priority 2018, dated 2020)

Target: WDR5 (Homo sapiens (Human), UniProt P61964)
Assay: TR-FRET binding assay, displacement of 10mer-Thr-FAM probe from His-tagged WDR5
Details: Inhibition of WDR5 by TR-FRET assay
Procedure: The LanthaScreenTM Elite Tb-anti-HIS Antibody from ThermoFisher Scientific was used for this purpose. […] The ratio of the 520 and 495 signals are then utilized to generate a dose-response curve to calculate an IC50 value. […] WDR[…] tag protein is used at 2 nM.

Structure (SMILES)	Ki
Cc1ncc(CNC(=O)c2cc(CNC3=NCCN3)cc(-c3ccc(F)nc3C)c2)cn1 [Example 37, 3-(((4,5-dihydro-1H-imidazol-2-yl)amino)methyl)-5-(6-fluoro-2-methylpyridin-3-yl)-N-((2-methylpyrimidin-5-yl)methyl)benzamide]	2.1 nM
Cc1cnc(F)c(-c2cc(CNC3=NCCN3)cc(C(=O)NCc3cc(Cl)ccn3)c2)c1 [Example 38, N-((4-chloropyridin-2-yl)methyl)-3-(((4,5-dihydro-1H-imidazol-2-yl)amino)methyl)-5-(2-fluoro-5-methylpyridin-3-yl)benzamide]	0.26 nM
Cc1ccnc(C(NC(=O)c2cc(CNC3=NCCN3)cc(-c3cc(C)cnc3F)c2)C2CC2)c1 (stereo not shown) [Example 39, N-(cyclopropyl(4-methylpyridin-2-yl)methyl)-3-(((4,5-dihydro-1H-imidazol-2-yl)amino)methyl)-5-(2-fluoro-5-methylpyridin-3-yl)benzamide]	< 0.1 nM
Cc1cnc(F)c(-c2cc(CNC3=NCCN3)cc(C(=O)N(C)C)c2)c1 [Example 40, 3-(((4,5-dihydro-1H-imidazol-2-yl)amino)methyl)-5-(2-fluoro-5-methylpyridin-3-yl)-N,N-dimethylbenzamide]	64 nM
Cc1cnc(F)c(-c2cc(CNC3=NCCN3)cc(C(=O)NCc3ccc(Cl)c(C)c3)c2)c1 [Example 42, N-(4-chloro-3-methylbenzyl)-3-(((4,5-dihydro-1H-imidazol-2-yl)amino)methyl)-5-(2-fluoro-5-methylpyridin-3-yl)benzamide]	< 0.1 nM
COc1cc(OC)cc(C(C)NC(=O)c2cc(CNC3=NC(=O)CN3C)cc(-c3ccc(F)nc3C)c2)c1 (stereo not shown) [Example 44, N-(1-(3,5-dimethoxyphenyl)ethyl)-3-(6-fluoro-2-methylpyridin-3-yl)-5-(((1-methyl-4-oxo-4,5-dihydro-1H-imidazol-2-yl)amino)methyl)benzamide]	17 nM
COc1ccnc(CNC(=O)c2cc(CNC3=NCCN3)cc(-c3cc(C(C)C)ccc3OC)c2)c1 [Example 45, 5-(((4,5-dihydro-1H-imidazol-2-yl)amino)methyl)-5′-isopropyl-2′-methoxy-N-((4-methoxypyridin-2-yl)methyl)-[1,1′-biphenyl]-3-carboxamide]	1.01 nM
COc1ccnc(CNC(=O)c2cc(CNC3=NCCN3)cc(-c3cc(C(F)(F)F)cnc3OC)c2)c1 [Example 46, 3-(((4,5-dihydro-1H-imidazol-2-yl)amino)methyl)-5-(2-methoxy-5-(trifluoromethyl)pyridin-3-yl)-N-((4-methoxypyridin-2-yl)methyl)benzamide]	0.1 nM
COc1ccnc(CNC(=O)c2cc(CNC3=NCCN3)cc(-c3ccc(F)cc3C(F)(F)F)c2)c1 [Example 47, 5-(((4,5-dihydro-1H-imidazol-2-yl)amino)methyl)-4′-fluoro-N-((4-methoxypyridin-2-yl)methyl)-2′-(trifluoromethyl)-[1,1′-biphenyl]-3-carboxamide]	< 0.1 nM
COc1ccnc(CNC(=O)c2cc(CNC3=NCCN3)cc(-c3cc(F)cnc3OC)c2)c1 [Example 48, 3-(((4,5-dihydro-1H-imidazol-2-yl)amino)methyl)-5-(5-fluoro-2-methoxypyridin-3-yl)-N-((4-methoxypyridin-2-yl)methyl)benzamide]	0.63 nM
COc1ccnc(CNC(=O)c2cc(CNC3=NCCN3)cc(-c3ccc(F)cc3OC)c2)c1 [Example 49, 5-(((4,5-Dihydro-1H-imidazol-2-yl)amino)methyl)-4′-fluoro-2′-methoxy-N-((4-methoxypyridin-2-yl)methyl)-[1,1′-biphenyl]-3-carboxamide]	0.3 nM
COc1ccnc(CNC(=O)c2cc(CNC3=NCCN3)cc(-c3cc(C)c(F)cc3OC)c2)c1 [Example 50, 5-(((4,5-Dihydro-1H-imidazol-2-yl)amino)methyl)-4′-fluoro-2′-methoxy-N-((4-methoxypyridin-2-yl)methyl)-5′-methyl-[1,1′-biphenyl]-3-carboxamide]	< 0.1 nM
COc1ccnc(CNC(=O)c2cc(CNC3=NCCN3)cc(-c3cc(C)c(F)cc3C)c2)c1 [Example 51, 5-(((4,5-Dihydro-1H-imidazol-2-yl)amino)methyl)-4′-fluoro-N-((4-methoxypyridin-2-yl)methyl)-2′,5′-dimethyl-[1,1′-biphenyl]-3-carboxamide]	< 0.1 nM
COc1cc(CNC(=O)c2cc(CNC3=NCCC3)cc(-c3cccn3C)c2)cc(OC)c1 [Example 58, 3-(((3,4-Dihydro-2H-pyrrol-5-yl)amino)methyl)-N-(3,5-dimethoxybenzyl)-5-(1-methyl-1H-pyrrol-2-yl)benzamide]	5.8 nM
COc1cc(CNC(=O)c2cc(CNC3=NCCC3)cc(-c3ccncc3C)c2)cc(OC)c1 [Example 61, 3-(((3,4-Dihydro-2H-pyrrol-5-yl)amino)methyl)-N-(3,5-dimethoxybenzyl)-5-(3-methylpyridin-4-yl)benzamide]	1.8 nM
COc1cc(CNC(=O)c2cc(CNC3=NCCC3)cc(-c3cc(C)c(F)cc3C)c2)cc(OC)c1 [Example 62, 5-(((3,4-Dihydro-2H-pyrrol-5-yl)amino)methyl)-N-(3,5-dimethoxybenzyl)-4′-fluoro-2′,5′-dimethyl-[1,1′-biphenyl]-3-carboxamide]	0.21 nM

Structure (SMILES)	Ki
Cc1cc(CNC(=O)c2cc(CNC3=NCCC3)cc(-c3ccc(F)c(CO)c3)c2)ccc1Cl [Example 65, N-(4-chloro-3-methylbenzyl)-5-(((3,4-dihydro-2H-pyrrol-5-yl)amino)methyl)-4′-fluoro-3′-(hydroxymethyl)-[1,1′-biphenyl]-3-carboxamide]	4.3 nM
Cc1cc(-c2cc(CNC3=NCCC3)cc(C(=O)NCc3ccc(Cl)c(C)c3)c2)c(C)cc1F [Example 66, N-(4-Chloro-3-methylbenzyl)-5-(((3,4-dihydro-2H-pyrrol-5-yl)amino)methyl)-4′-fluoro-2′,5′-dimethyl-[1,1′-biphenyl]-3-carboxamide]	0.38 nM
Cc1nc(F)ccc1-c1cc(CNC2=NCCN2)cc(C(=O)NCc2ccc(Cl)c(F)c2)n1 [Example 73, N-(4-Chloro-3-fluorobenzyl)-4-(((4,5-dihydro-1H-imidazol-2-yl)amino)methyl)-6′-fluoro-2′-methyl-[2,3′-bipyridine]-6-carboxamide]	0.43 nM
COc1cc(OC)cc(C(C)NC(=O)c2cc(CNC3=NCCN3)cc(-c3ccc(F)nc3C)n2)c1 (stereo not shown) [Example 75, 4-(((4,5-Dihydro-1H-imidazol-2-yl)amino)methyl)-N-(1-(3,5-dimethoxyphenyl)ethyl)-6′-fluoro-2′-methyl-[2,3′-bipyridine]-6-carboxamide]	0.8 nM
Cc1cnc(CNC(=O)c2cc(CNC3=NCCN3)cc(-c3ccc(F)nc3C)n2)cn1 [Example 76, 4-(((4,5-Dihydro-1H-imidazol-2-yl)amino)methyl)-6′-fluoro-2′-methyl-N-((5-methylpyrazin-2-yl)methyl)-[2,3′-bipyridine]-6-carboxamide]	32 nM
Cc1cnc(CNC(=O)c2cc(CNC3=NCCN3)cc(-c3ccc(F)nc3C)n2)nc1 [Example 77, 4-(((4,5-Dihydro-1H-imidazol-2-yl)amino)methyl)-6′-fluoro-2′-methyl-N-((5-methylpyrimidin-2-yl)methyl)-[2,3′-bipyridine]-6-carboxamide]	33 nM
COc1cc(CNC(=O)c2cc(CNC3=NCCN3)cc(-c3ccc(F)nc3C)n2)cc(OC)c1 [Example 78, 4-(((4,5-Dihydro-1H-imidazol-2-yl)amino)methyl)-N-(3,5-dimethoxybenzyl)-6′-fluoro-2′-methyl-[2,3′-bipyridine]-6-carboxamide]	0.72 nM
COc1cc(CNC(=O)c2cc(CNC3=NCCN3)cc(-c3ccc(F)nc3C)n2)ccn1 [Example 79, 4-(((4,5-Dihydro-1H-imidazol-2-yl)amino)methyl)-6′-fluoro-N-((2-methoxypyridin-4-yl)methyl)-2′-methyl-[2,3′-bipyridine]-6-carboxamide]	5.74 nM
Cc1ncc(CNC(=O)c2cc(CNC3=NCCN3)cc(-c3ccc(F)nc3C)n2)cn1 [Example 80, 4-(((4,5-Dihydro-1H-imidazol-2-yl)amino)methyl)-6′-fluoro-2′-methyl-N-((2-methylpyrimidin-5-yl)methyl)-[2,3′-bipyridine]-6-carboxamide]	22 nM
Cc1ccncc1-c1cc(CNC2=NCCN2)cc(C(=O)NCc2ccc(Cl)c(Cl)c2)n1 [Example 81, N-(3,4-Dichlorobenzyl)-4-(((4,5-dihydro-1H-imidazol-2-yl)amino)methyl)-4′-methyl-[2,3′-bipyridine]-6-carboxamide]	0.24 nM
Cc1cc(-c2cc(CNC3=NCCN3)cc(C(=O)NCc3ccc(Cl)c(Cl)c3)n2)ccn1 [Example 82, N-(3,4-Dichlorobenzyl)-4-(((4,5-dihydro-1H-imidazol-2-yl)amino)methyl)-2′-methyl-[2,4′-bipyridine]-6-carboxamide]	0.46 nM
COc1ncc(C)cc1-c1cc(CNC2=NCCN2)cc(C(=O)NCc2ccc(Cl)c(Cl)c2)n1 [Example 83, N-(3,4-Dichlorobenzyl)-4-(((4,5-dihydro-1H-imidazol-2-yl)amino)methyl)-2′-methoxy-5′-methyl-[2,3′-bipyridine]-6-carboxamide]	0.31 nM
Cc1cnccc1-c1cc(CNC2=NCCN2)cc(C(=O)NCc2ccc(Cl)c(Cl)c2)n1 [Example 84, N-(3,4-Dichlorobenzyl)-4-(((4,5-dihydro-1H-imidazol-2-yl)amino)methyl)-3′-methyl-[2,4′-bipyridine]-6-carboxamide]	0.15 nM
COc1ncc(Cl)cc1-c1cc(CNC2=NCCN2)cc(C(=O)NCc2ccc(Cl)c(Cl)c2)n1 [Example 86, 5′-Chloro-N-(3,4-dichlorobenzyl)-4-(((4,5-dihydro-1H-imidazol-2-yl)amino)methyl)-2′-methoxy-[2,3′-bipyridine]-6-carboxamide]	< 0.1 nM
CCOc1ncc(C)cc1-c1cc(CNC2=NCCN2)cc(C(=O)NCc2ccc(Cl)c(Cl)c2)n1 [Example 88, N-(3,4-dichlorobenzyl)-4-(((4,5-dihydro-1H-imidazol-2-yl)amino)methyl)-2′-ethoxy-5′-methyl-[2,3′-bipyridine]-6-carboxamide]	0.12 nM
